The first test has as its target hMAT2A (Homo sapiens (Human), UniProt P31153). The test can be described thus: Phosphate Sensor Fluorescence Assay (MAT2A enzyme inhibition). Format: biochemical. As to conditions: L-methionine 500 uM, ATP 500 uM, class symbols. The method, boiled down: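 Recombinant MAT2A preincubated 15 min at room temperature with compound, then reacted 1 h at room temperature with 500 uM L-methionine and 500 uM ATP in Tris pH 7.5 buffer containing PNP/7-MEG.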
Sequence of hMAT2A (P31153 whole entry): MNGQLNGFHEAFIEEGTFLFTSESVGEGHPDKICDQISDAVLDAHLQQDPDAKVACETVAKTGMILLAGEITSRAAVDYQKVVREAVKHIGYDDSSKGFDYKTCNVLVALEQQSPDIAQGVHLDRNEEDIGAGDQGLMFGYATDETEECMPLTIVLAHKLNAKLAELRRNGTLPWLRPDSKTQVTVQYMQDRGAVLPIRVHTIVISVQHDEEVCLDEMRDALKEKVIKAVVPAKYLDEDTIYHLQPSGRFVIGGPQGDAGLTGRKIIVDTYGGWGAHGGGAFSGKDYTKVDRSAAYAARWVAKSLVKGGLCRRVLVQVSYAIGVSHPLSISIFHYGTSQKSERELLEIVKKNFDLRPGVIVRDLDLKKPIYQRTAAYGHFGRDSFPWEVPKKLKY
Consider `CNc1nc(=O)n(-c2cccc(C#N)c2)c2nc(C(F)(F)F)ccc12` [Example 179, 3-[4-(methylamino)-2-oxo-7-(trifluoro-methyl)pyrido[2,3-d]pyrimidin-1(2H)-yl)benzonitrile], for which the IC50 – broadly, the point on the concentration scale where inhibition reaches its midpoint – is under 200 nM. `CO[C@H]1C[C@@H](Nc2nc(=O)n(-c3ccccc3Cl)c3nc(C(F)(F)F)ccc23)C1` [Example 270, 1-(2-chlorophenyl)-4-(((1s,3s)-3-methoxycyclobutyl)amino)-7-(trifluoro-methyl)pyrido[2,3-d]pyrimidin-2(1H)-one] had an IC50 of under 200 nM. In turn, `O=c1nc(Nc2ccncc2)c2ccc(C(F)(F)F)nc2n1-c1ccccc1Cl` [Example 421, 1-(2-chlorophenyl)-4-(pyridin-4-yl-amino)-7-(trifluoromethyl)pyrido[2,3-d]-pyrimidin-2(1H)-one] yielded an IC50 of under 200 nM. For the compound `O=c1nc(N[C@H]2CC[C@@H]2O)c2ccc(C(F)(F)F)nc2n1-c1ccccc1Cl` (atropisomer, axis not shown; (Sa)) [Example 337, 4-[((1S,2 S)-2-hydroxycyclobutyl)-amino]-(1Sa)-(2-chlorophenyl)-7-(trifluoromethyl)hydro-pyridino [2,3-d]-pyrimidin-2-one], the IC50 is under 200 nM.

As for `Nc1nc(=O)n(-c2ccccc2)c2cc(Cl)cc(-n3cccn3)c12` [Example 387, 4-amino-7-chloro-1-phenyl-5-pyrazol-1-ylhydroquinazolin-2-one], the IC50 was 1000 to 10000 nM. Take `COc1nc(=O)n(-c2ncccn2)c2cc(C(F)(F)F)ccc12` [Example 120]: the IC50 fell in the range of 1000 to 10000 nM. `CNc1nc(=O)n(-c2ccccc2Cl)c2cc(C(F)(F)F)c(F)cc12` [Example 304, 1-(2-chlorophenyl)-6-fluoro-4-(methyl-amino)-7-(trifluoromethyl)hydro-quinazolin-2-one] came in with an IC50 of under 200 nM. The same measure, in the same setting: the figure for `CNc1nc(=O)n(-c2cccc(O)c2C)c2cc(Cl)ccc12` [Example 157, 7-chloro-1-(3-hydroxy-2-methylphenyl)-4-(methylamino)hydroquinazolin-2-one] is under 200 nM; for `CNc1nc(=O)n(-c2cccc(OC)n2)c2nc(C(F)(F)F)ccc12` [Example 91, 1-(6-methoxypyridin-2-yl)-4-(methylamino)-7-(trifluoromethyl)-pyrido[2,3-d]pyrimidin-2(1H)-one] it is under 200 nM. Consider `CNc1nc(=O)n(-c2ccc(C)nc2)c2nc(C(F)(F)F)ccc12` [Example 314], for which the IC50 was under 200 nM. `O=c1[nH]c(=O)n(-c2ccccc2)c2cc(C3CC3)ccc12` [Example 130, 7-cyclopropyl-1-phenyl-1,3-dihydro-quinazoline-2,4-dione]: the IC50 lay within 500 to 1000 nM. On to `CC(C)Nc1nc(=O)n(-c2ccccc2Cl)c2nc(C(F)(F)F)ccc12` [Example 258, 1-(2-chlorophenyl)-4-[(methylethyl)-amino]-7-(trifluoromethyl)pyrido[2,3-d]-pyrimidin-2(1H)-one], for which the IC50 is under 200 nM.

Compound `CN(C)c1nc(=O)n(-c2cccc(CCCc3ccccc3)c2)c2cc(Cl)ccc12` [Example 227, 4-(dimethylamino)-7-chloro-1-[3-(3-phenylpropyl)phenyl]hydroquinazolin-2-one] registered an IC50 of under 200 nM. As for `CNc1nc(=O)n(-c2ccccc2C)c2nc(C(F)(F)F)ccc12` [Example 180, 4-(methylamino)-1-(2-methylphenyl)-7-(trifluoromethyl)pyrido[2,3-d]pyrimidin-2(1H)-one], the IC50 is under 200 nM. In turn, `CNc1nc(=O)n(-c2ccccc2)c2nc(C(C)C)ccc12` [Example 414, 4-(methylamino)-7-(methylethyl)-1-phenylpyrido[2,3-d]pyrimidin-2(1H)-2-one] showed a 50% inhibitory concentration (IC50) of under 200 nM.

Take `C=Cc1ccc2c(NC)nc(=O)n(-c3ccccc3)c2c1` [Example 96, 4-(methylamino)-1-phenyl-7-vinylhydro-quinazolin-2-one]: the IC50 was under 200 nM. In the case of `CNc1nc(=O)n(-c2cccc(C#N)c2)c2cc(Cl)ccc12` [Example 155, 3-[7-chloro-4-(methylamino)-2-oxo-hydroquinazolinyl]benzenecarbonitrile], the IC50 fell in the range of 200 to 500 nM. Same read-out and setting: to `CN(CC(F)(F)F)c1nc(=O)n(-c2ccccc2)c2cc(Cl)ccc12` [Example 237, 7-chloro-4-[methyl(2,2,2-trifluoroethyl)-amino]-1-phenylhydroquinazolin-2-one] belongs under 200 nM; to `CC1(Nc2nc(=O)n(-c3ccccc3Cl)c3nc(C(F)(F)F)ccc23)CC1` [Example 88, 1-(2-chlorophenyl)-4((1-methylcyclo-propyl)amino)-7-(trifluoromethyl)-pyrido[2,3-d]pyrimidin-2(1H)-one], under 200 nM. With `CN(C)c1nc(=O)n(-c2ccc3[nH]ncc3c2)c2cc(Cl)ccc12` [Example 280, 7-chloro-4-(dimethylamino)-1-(1H-indazol-5-yl)quinazolin-2(1H)-one], the IC50 was under 200 nM. `CNc1nc(=O)n(-c2cccnc2)c2cc(Cl)ccc12` [Example 114, 7-chloro-4-(methylamino)-1-(3-pyridyl)-hydroquinazolin-2-one] showed an IC50 of under 200 nM. On to `O=c1nc(N2CC[C@@H]2CO)c2ccc(Cl)cc2n1-c1ccccc1` [Example 187, (R)-7-chloro-4-(2-(hydroxymethyl)-azetidin-1-yl)-1-phenylquinazolin-2(1H)-one], for which the IC50 fell in the range of 200 to 500 nM.

In turn, `CNc1nc(=O)n(-c2ccccc2Cl)c2cc(C3CC3)cc(OC(F)F)c12` [Example 406, 5-(difluoromethoxy)-1-(2-chlorophenyl)-7-cyclopropyl-4-(methylamino)hydro-quinazolin-2-one] displayed an IC50 of 200 to 500 nM. `O=c1nc(N2CC(O)C2)c2ccc(C(F)(F)F)cc2n1-c1ccccc1` [Example 164] registered an IC50 of under 200 nM. Compound `CNc1nc(=O)n(-c2cccnc2)c2nc(C(F)(F)F)ccc12` [Example 378, 4-(methylamino)-1-(pyridin-3-yl)-7-(trifluoromethyl)pyrido[2,3-d]pyrimidin-2(1H)-one] returned an IC50 of under 200 nM. The same measure, in the same setting: to `CN(CC(F)F)c1nc(=O)n(-c2ccccc2)c2cc(Cl)ccc12` [Example 205, 4-[(2,2-difluoroethyl)methylamino]-7-chloro-1-phenylhydroquinazolin-2-one] belongs under 200 nM; to `Nc1nc(=O)n(-c2ccccc2)c2nc(C(F)(F)F)ccc12` [Example 138, 4-amino-1-phenyl-7-(trifluoromethyl)-hydropyridino[2,3-d]pyrimidin-2-one], under 200 nM; to `[2H]C([2H])([2H])Nc1nc(=O)n(-c2ccccc2)c2nc(C(F)(F)F)ccc12` [Example 366, 4-((methyl-d3)amino)-1-phenyl-7-(trifluoromethyl)pyrido[2,3-d]pyrimidin-2(1H)-one], under 200 nM.

For `O=c1nc(NCC(F)F)c2ccc(C(F)(F)F)cc2n1-c1ccccc1` [Example 119, 4-[(2,2-difluoroethyl)amino]-1-phenyl-7-(trifluoromethyl)hydroquinazolin-2-one], the IC50 was under 200 nM. Same read-out and setting: the figure for `C[C@H](O)CNc1nc(=O)n(-c2ccccc2Cl)c2nc(C(F)(F)F)ccc12` [Example 293, 4-[((2S)-2-hydroxypropyl)amino]-1-(2-chlorophenyl)-7-(trifluoromethyl)-pyrido[2,3-d]pyrimidin-2(1H)-one] is under 200 nM; for `CS(=O)(=O)Nc1nc(=O)n(-c2ccccc2)c2cc(Cl)ccc12` [Example 200, N-(7-chloro-2-oxo-1-phenyl-1,2-dihydroquinazolin-4-yl)methane-sulfonamide] it is 1000 to 10000 nM; for `O=c1nc(NCC2(CO)CC2)c2ccc(C(F)(F)F)nc2n1-c1ccccc1Cl` [Example 265] it is under 200 nM. The compound `CNc1nc(=O)n(-c2ccncc2Cl)c2nc(C(F)(F)F)ccc12` [Example 312] registered an IC50 of under 200 nM. Take `Nc1nc(=O)n(-c2ccccc2Cl)c2nc(C(F)(F)F)ccc12` [Example 167, 4-amino-1-(2-chlorophenyl)-7-(trifluoro-methyl)pyrido[2,3-d]pyrimidin-2(1H)-one]: the IC50 is under 200 nM. Take `Cc1ncccc1-n1c(=O)nc(NCC(F)F)c2ccc(C(F)(F)F)cc21` [Example 282, 4-((2,2-difluoroethyl)amino)-1-(2-methylpyridin-3-yl)-7-(trifluoromethyl)-quinazolin-2(1H)-one]: the IC50 is under 200 nM.

As to `CNc1nc(=O)n(-c2ccccc2)c2cc(Cl)cc(OCC3CC3)c12` [Example 348, 7-chloro-5-(cyclopropylmethoxy)-4-(methylamino)-1-phenylhydro-quinazolin-2-one], the IC50 was under 200 nM. `O=c1nc(NCC(F)(F)F)c2ccc(C(F)(F)F)nc2n1-c1ccccc1Cl` [Example 389, 1-(2-chlorophenyl)-4-[(2,2,2-trifluoro-ethyl)amino]-7-(trifluoro-methyl)-pyrido[2,3-d]pyrimidin-2(1H)-one]: the IC50 is under 200 nM.

The test is the same for the next values; noted with them: L-methionine 500 uM, ATP 500 uM, numeric bound.
`CNc1nc(=O)n(-c2ccccc2)c2cc(Cl)cc(OC(C)C)c12` [Example 349, 7-chloro-4-(methylamino)-5-(methyl-ethoxy)-1-phenylhydroquinazolin-2-one]: the IC50 is over 10000 nM.

For the compound `O=c1[nH]c(=O)n(-c2ccccc2)c2cc(CO)ccc12` [Example 212, 7-(hydroxymethyl)-1-phenyl-1,3-dihydroquinazoline-2,4-dione], the IC50 was over 10000 nM. In turn, `Nc1nc(=O)n(-c2ccccc2)c2cc(Cl)cc(-n3nccn3)c12` [Example 112, 4-amino-7-chloro-1-phenyl-5-(1,2,3-triazol-2-yl)hydroquinazolin-2-one] gave an IC50 of over 10000 nM.

`O=c1[nH]c(=O)n(-c2ccccc2)c2c(Cl)c(C(F)(F)F)ccc12` [Example 361] returned an IC50 of over 10000 nM. As to `CNc1nc(=O)n(-c2cc(OC)ccn2)c2nc(C(F)(F)F)ccc12` [Example 93, 1-(4-methoxypyridin-2-yl)-4-(methyl-amino)-7-(trifluoromethyl)pyrido[2,3-d]pyrimidin-2(1H)-one], the IC50 was over 10000 nM.

(Values after patent US11046691B1 (IDEAYA BIOSCIENCES, INC., priority 2018, dated 2021).)
